Reference: patent US9492471B2, “Methods of treating a disease or disorder associated with Bruton'S Tyrosine Kinase” (Celgene Avilomics Research, Inc., priority 2013, dated 2016)
Read-outs that look alike come from different tables or passages of the source.

How the values were obtained:
Test in all cases: HotSpot kinase profiling
Type in all cases: biochemical
FGFR4 = target: T1, FGFR4 (Homo sapiens, UniProt P22455)
T1 construct: purchased Reaction Biology Corp
Procedure, shortened: (§1)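 Radiometric kinase assay with P81 filter capture; each kinase was added to fresh substrate plus cofactors in reaction buffer and incubated 2 h at room temperature. Unreacted phosphate was washed off with 0.1% phosphoric acid before detection; percent inhibition is relative to DMSO control, averaged over replicates.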

MUSK = target: T2, MUSK (Homo sapiens, UniProt O15146)
T2 construct: purchased Reaction Biology Corp
T2 sequence (O15146 24-869): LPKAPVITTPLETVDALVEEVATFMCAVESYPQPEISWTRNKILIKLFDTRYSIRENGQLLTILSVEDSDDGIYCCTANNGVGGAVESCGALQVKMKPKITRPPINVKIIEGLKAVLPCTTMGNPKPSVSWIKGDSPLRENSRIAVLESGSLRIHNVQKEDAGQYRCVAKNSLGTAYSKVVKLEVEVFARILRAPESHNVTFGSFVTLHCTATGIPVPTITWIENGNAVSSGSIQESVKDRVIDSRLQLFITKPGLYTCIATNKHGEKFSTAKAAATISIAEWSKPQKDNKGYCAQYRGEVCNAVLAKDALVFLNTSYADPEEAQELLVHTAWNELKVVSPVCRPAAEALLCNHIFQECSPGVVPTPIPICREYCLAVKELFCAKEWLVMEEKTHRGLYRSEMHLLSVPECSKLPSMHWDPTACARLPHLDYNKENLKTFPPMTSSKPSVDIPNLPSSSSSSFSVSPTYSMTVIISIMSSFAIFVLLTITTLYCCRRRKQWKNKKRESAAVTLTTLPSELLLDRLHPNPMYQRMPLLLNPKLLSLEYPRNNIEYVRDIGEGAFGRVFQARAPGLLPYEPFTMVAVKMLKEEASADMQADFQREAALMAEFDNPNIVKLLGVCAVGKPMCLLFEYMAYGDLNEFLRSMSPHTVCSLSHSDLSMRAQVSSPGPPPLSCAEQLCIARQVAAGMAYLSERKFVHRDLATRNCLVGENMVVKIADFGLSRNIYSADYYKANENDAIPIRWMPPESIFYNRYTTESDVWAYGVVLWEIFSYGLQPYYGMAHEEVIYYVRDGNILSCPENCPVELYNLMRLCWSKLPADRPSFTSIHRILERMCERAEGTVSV
Procedure, shortened: as §1

PHKg1 = target: T3, PHKg1 (Homo sapiens, UniProt Q16816)
T3 construct: purchased Reaction Biology Corp
Procedure, shortened: as §1

PKAcg = target: T4, PKAcg (Homo sapiens, UniProt P22612)
T4 construct: purchased Reaction Biology Corp
Procedure, shortened: as §1

PKG2/PRKG2 = target: T5, PKG2/PRKG2 (Homo sapiens, UniProt Q13237)
T5 construct: purchased Reaction Biology Corp
T5 sequence (Q13237 1-762): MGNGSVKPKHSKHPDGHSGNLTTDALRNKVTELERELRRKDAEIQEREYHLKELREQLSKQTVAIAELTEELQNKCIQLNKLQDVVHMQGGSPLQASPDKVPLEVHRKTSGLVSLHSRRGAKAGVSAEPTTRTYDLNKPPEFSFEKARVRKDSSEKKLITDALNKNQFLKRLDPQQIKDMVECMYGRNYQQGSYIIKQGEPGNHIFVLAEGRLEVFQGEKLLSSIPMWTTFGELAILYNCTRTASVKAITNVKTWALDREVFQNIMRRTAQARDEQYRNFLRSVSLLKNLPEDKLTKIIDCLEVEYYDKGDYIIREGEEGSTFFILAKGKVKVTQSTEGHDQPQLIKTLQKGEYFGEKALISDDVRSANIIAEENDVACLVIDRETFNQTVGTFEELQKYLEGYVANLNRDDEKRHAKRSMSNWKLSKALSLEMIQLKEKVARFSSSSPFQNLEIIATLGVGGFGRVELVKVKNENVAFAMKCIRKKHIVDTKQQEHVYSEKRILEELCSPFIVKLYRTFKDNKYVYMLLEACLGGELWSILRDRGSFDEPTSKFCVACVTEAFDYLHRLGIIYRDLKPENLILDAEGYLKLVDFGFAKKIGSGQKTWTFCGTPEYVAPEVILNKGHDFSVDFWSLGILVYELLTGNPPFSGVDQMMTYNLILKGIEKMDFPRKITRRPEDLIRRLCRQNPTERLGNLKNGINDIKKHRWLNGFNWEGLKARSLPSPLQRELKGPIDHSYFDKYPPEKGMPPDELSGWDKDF
Procedure, shortened: as §1

TSSK3/STK22C = target: T6, TSSK3/STK22C (Homo sapiens, UniProt Q96PN8)
T6 construct: purchased Reaction Biology Corp
T6 sequence (Q96PN8 1-268): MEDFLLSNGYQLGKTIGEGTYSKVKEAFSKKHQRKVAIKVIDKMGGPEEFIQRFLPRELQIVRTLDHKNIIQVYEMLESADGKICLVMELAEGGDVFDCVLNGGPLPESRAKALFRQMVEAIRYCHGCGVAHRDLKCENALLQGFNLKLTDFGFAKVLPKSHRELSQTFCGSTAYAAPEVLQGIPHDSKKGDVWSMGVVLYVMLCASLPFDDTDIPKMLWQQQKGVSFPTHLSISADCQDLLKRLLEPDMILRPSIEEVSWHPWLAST
Procedure, shortened: as §1

[1] = read-out: % Enzyme Activity (relative to DMSO controls) Run 1
[2] = read-out: % Enzyme Activity (relative to DMSO controls) Run 2

T3 sequence (Q16816 whole entry): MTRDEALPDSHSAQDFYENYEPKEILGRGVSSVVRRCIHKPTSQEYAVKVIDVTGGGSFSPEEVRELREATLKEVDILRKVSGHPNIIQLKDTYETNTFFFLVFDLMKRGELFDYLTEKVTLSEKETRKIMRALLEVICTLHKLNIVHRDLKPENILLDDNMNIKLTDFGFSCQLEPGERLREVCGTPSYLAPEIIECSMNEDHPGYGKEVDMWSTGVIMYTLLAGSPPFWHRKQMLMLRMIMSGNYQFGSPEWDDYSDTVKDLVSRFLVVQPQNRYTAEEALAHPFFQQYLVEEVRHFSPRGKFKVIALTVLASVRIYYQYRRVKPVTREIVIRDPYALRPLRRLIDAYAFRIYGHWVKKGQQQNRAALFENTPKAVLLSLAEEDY
T1 sequence (P22455 22-802): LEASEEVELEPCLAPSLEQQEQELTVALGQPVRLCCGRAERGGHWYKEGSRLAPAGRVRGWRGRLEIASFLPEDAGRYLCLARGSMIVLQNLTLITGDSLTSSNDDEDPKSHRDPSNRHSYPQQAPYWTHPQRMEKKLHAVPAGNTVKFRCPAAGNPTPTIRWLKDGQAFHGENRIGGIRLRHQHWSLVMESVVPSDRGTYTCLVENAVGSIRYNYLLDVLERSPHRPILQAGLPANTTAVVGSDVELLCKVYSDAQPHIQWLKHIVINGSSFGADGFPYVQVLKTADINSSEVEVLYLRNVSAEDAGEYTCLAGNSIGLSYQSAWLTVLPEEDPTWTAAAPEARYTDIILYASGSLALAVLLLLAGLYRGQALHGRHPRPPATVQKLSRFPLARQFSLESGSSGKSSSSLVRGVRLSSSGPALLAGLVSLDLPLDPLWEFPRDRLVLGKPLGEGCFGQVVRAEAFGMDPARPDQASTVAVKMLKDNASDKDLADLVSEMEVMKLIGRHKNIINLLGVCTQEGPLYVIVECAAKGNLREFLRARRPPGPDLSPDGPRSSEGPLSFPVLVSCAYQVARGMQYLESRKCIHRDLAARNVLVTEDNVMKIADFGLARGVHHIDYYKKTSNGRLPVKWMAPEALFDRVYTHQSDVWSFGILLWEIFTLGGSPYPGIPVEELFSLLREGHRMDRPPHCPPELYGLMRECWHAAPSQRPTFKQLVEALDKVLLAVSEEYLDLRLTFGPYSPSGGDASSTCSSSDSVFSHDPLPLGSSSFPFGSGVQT
T4 sequence (P22612 whole entry): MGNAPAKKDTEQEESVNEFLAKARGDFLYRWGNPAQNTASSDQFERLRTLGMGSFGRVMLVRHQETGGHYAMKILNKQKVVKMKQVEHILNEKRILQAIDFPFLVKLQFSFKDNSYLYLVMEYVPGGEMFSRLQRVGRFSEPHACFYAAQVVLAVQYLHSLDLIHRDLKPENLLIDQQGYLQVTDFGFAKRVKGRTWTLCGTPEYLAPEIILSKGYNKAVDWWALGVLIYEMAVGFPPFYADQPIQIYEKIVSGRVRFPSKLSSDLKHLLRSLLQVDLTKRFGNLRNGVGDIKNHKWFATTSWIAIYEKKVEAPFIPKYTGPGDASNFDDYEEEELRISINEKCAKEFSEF

In the case of `C=CC(=O)Nc1cccc(Nc2nc(Nc3ccc(OCCOC)c(F)c3)ncc2F)c1` [Compound 2], the inhibition at 3 µM (FGFR4) is reported as 35.1%, the remaining activity at 3 µM (FGFR4; [1]) is reported as 66.3% and the remaining activity at 3 µM (FGFR4; [2]) is reported as 63.4%. The inhibition at 3 µM (MUSK) was 30.9%, the remaining activity at 3 µM (MUSK; [1]) was 70.2% and the remaining activity at 3 µM (MUSK; [2]) was 68%. For the same compound, the inhibition at 3 µM (PHKg1) was 14.5%, the remaining activity at 3 µM (PHKg1; [1]) was 85.8% and the remaining activity at 3 µM (PHKg1; [2]) was 85.2%. The inhibition at 3 µM (PKAcg) was -27.8%, the remaining activity at 3 µM (PKAcg; [1]) was 128% and the remaining activity at 3 µM (PKAcg; [2]) was 128%. For the same compound, the inhibition at 3 µM (PKG2/PRKG2) was 14.2%, the remaining activity at 3 µM (PKG2/PRKG2; [1]) was 87.2% and the remaining activity at 3 µM (PKG2/PRKG2; [2]) was 84.5%. The inhibition at 3 µM (TSSK3/STK22C) was -32.6%, the remaining activity at 3 µM (TSSK3/STK22C; [1]) was 133% and the remaining activity at 3 µM (TSSK3/STK22C; [2]) was 133%.
